Paper PMC7822874, “Chemoprotective antimalarials identified through quantitative high-throughput screening of Plasmodium blood and liver stage parasites” (Scientific Reports, 2021)
Read-outs that look alike come from different tables or passages of the source.

Tests used:
in vitro = settings: human, hepg2 cells
[1] = system: Plasmodium falciparum Dd2 asexual blood stage parasites; assay: microbe, parasite or virus in culture; design: species or system Plasmodium falciparum Dd2 in human erythrocytes; single determination (one 11-point concentration-response curve); settings: Plasmodium falciparum, DD2, Erythrocyte, 72 h
HepG2 = settings: human, hepg2 cells, 48 h

Log AC50 (M) (HepG2) | Structure (SMILES) | CC50 at 48 h (in vitro) | AC50 ([1]; read-out: AC50) | AC50 [1]
-4.3643 M | CCCCC(=O)NC(c1cccc([N+](=O)[O-])c1)c1c(OC(C)=O)ccc2ccccc12 (stereo not drawn) [MLS000527046-01] | 43.2 µM | 3.76 µM | –
-4.3643 M | Cc1ccc(C)c(N2CCN(CCCNC(=O)c3cnn(-c4cccc(Cl)c4)c3C3CCN(C(=O)OC(C)(C)C)CC3)CC2)c1 [NCGC00126914-01] | 43.2 µM | 8.41 µM | –
-4.4643 M | CN(C)CCNC(=O)c1cc2c(s1)-c1ccc(Cl)cc1SC2 [MLS001198989-01] | 34.3 µM | 13.3 µM | –
-4.4643 M | CCN1C(=O)C2(CCN([S+](=O)([O-])c3ccc(Cl)cc3C)CC2)c2ccccc21 [NCGC00435870-01] | 34.3 µM | 5.31 µM | –
-4.4143 M | CCOc1ccc2nc(C)cc(Nc3ccc4c(c3)OCCO4)c2c1 [MLS000575119-01] | 38.5 µM | 6.68 µM | –
-4.8143 M | CCOC(=O)CCCOc1cccn2c(=O)c(-c3cc(C)n(-c4ccc(Cl)cc4)n3)c(C)nc12 [NCGC00473250-01] | 15.3 µM | 10.6 µM | –
-4.4643 M | CCCCN(C)CCCNC(=O)Cn1ncc2c3ccccc3n(Cc3cc(C)ccc3C)c2c1=O [NCGC00114267-01] | 34.3 µM | 0.75 µM | –
-4.4143 M | Oc1cccc(C(Nc2nccs2)c2ccc3cccnc3c2O)c1 (stereo not drawn) [MLS000760926-01] | 38.5 µM | 7.5 µM | –
-4.2528 M | COc1cccc(Nc2ccc3c(n2)C(C)(C(=O)NC2CCN(C)CC2)CN(C)C3)c1 (stereo not drawn) [NCGC00414505-01] | 55.9 µM | 17.2 µM | –
-4.3643 M | Cc1ccc(C)c(N2CCN(CCCNC(=O)c3cnn(-c4ccc(F)cc4)c3C3CCN(C(=O)OC(C)(C)C)CC3)CC2)c1 [NCGC00126698-01] | 43.2 µM | 2.66 µM | –
-4.3643 M | CC(C)(C)OC(=O)N1CCC(c2c(C(=O)NCCN3CCC(Cc4ccccc4)CC3)cnn2-c2ccc(F)cc2)CC1 [NCGC00126694-01] | 43.2 µM | 5.31 µM | –
-4.5143 M | COc1ccc2nc(C)cc(NCc3cccc(C(F)(F)F)c3)c2c1 [MLS001174340-01] | 30.6 µM | 2.11 µM | –
-4.5643 M | COc1cc2c(Nc3ccc(Br)cc3F)ncnc2cc1OCC1CCN(C)CC1 [NCGC00167513-01] | 27.3 µM | 5.96 µM | –
-4.5643 M | O=C1CCN(Cc2ccc(C(F)(F)F)cc2)CCCC(c2nc(-c3cccnc3)no2)CCN1 (stereo not drawn) [NCGC00465921-01] | 27.3 µM | – | –
-4.4643 M | CCC1CCCCN1CCCNC(=O)c1ccc2c(c1)sc1nc(-c3ccc(F)cc3)cn12 (stereo not drawn) [NCGC00121679-01] | 34.3 µM | 1.5 µM | –
-4.3643 M | O=c1c2ccccc2nc2n1CCN2Cc1ccc(Cl)cc1 [MLS000107729-01] | 43.2 µM | – | –
-4.4143 M | CCN(CC)CCCNC(=O)c1ccc2c(c1)N(Cc1c(F)cccc1Cl)C(=O)c1ccccc1S2 [NCGC00108146-01] | 38.5 µM | 0.944 µM | –
-4.7643 M | CCCCC(=O)NC(c1ccccc1OC)c1ccc2cccnc2c1O (stereo not drawn) [MLS000715346-01] | 17.2 µM | 5.31 µM | –
-4.3643 M | COc1ccccc1-c1ccc(CN2CCCC(c3nc4ccc(F)cc4c(=O)[nH]3)C2)cc1 (stereo not drawn) [NCGC00377223-02] | 43.2 µM | 8.41 µM | –
-4.5643 M | COc1cc(C2CC(=O)N(Cc3ccc(F)cc3)c3ccccc3S2)cc(OC)c1OC (stereo not drawn) [NCGC00112401-01] | 27.3 µM | 2.11 µM | –
-4.3643 M | COC(=O)C1=C(C)NC(C)=C(C(=O)OCCCN2CCC(c3ccccc3)(c3ccccc3)CC2)C1c1cccc([N+](=O)[O-])c1.Cl (stereo not drawn) [NCGC00163135-01] | 43.2 µM | – | 2.99 µM
-4.3643 M | Cc1cc(Nc2ccc(Cl)cc2)nc(NCc2ccccc2)n1 [MLS000591025-01] | 43.2 µM | 0.422 µM | –
-4.3643 M | Cc1ccccc1Cn1c(CN2CCC(C(=O)NCCN(C)C)CC2)cc2ccccc21 [NCGC00137638-01] | 43.2 µM | – | –
-4.5143 M | O=C(Nc1ccc(Oc2cccnc2)cc1)C1CCN(Cc2cc(Cl)ccc2O)CC1 [MLS001072411-01] | 30.6 µM | – | –
-4.3643 M | CCOC(=O)c1ccc(-c2ccc(/C=C(\C#N)c3nc4cc(C)ccc4[nH]3)o2)cc1 [NCGC00098928-01] | 43.2 µM | – | –

Log AC50 (M) (HepG2) | Structure (SMILES) | CC50 at 48 h (in vitro) | AC50 ([1]; read-out: AC50) | AC50 [1]
-4.4143 M | CCN1C(=O)C2(CCN([S+](=O)([O-])c3cc(F)ccc3C)CC2)c2ccccc21 [NCGC00435872-01] | 38.5 µM | – | –
-4.5143 M | CC(=O)N1CCN(c2cc(-c3noc([C@@H]4CCCN4Cc4ccc(C(F)(F)F)cc4)n3)ccn2)CC1 [NCGC00394931-01] | 30.6 µM | – | –
-4.3028 M | Fc1ccc(CN2CC[C@H](c3nc4ccc(C(F)(F)F)cc4[nH]3)C2)cc1F [NCGC00396703-01] | 49.8 µM | – | –
-4.4643 M | CCc1ccc(NC(=O)C2CCN(c3cc(C(F)(F)F)ncn3)CC2)cc1 [NCGC00455558-01] | 34.3 µM | – | –
-4.5643 M | SC(=Nc1ccncc1)NCc1ccccc1 [MLS001230114-01] | 27.3 µM | – | –
-4.3643 M | OC(CNCCc1ccccc1)COc1ccc(OCC(O)CNCCc2ccccc2)cc1 (stereo not drawn) [MLS000769724-01] | 43.2 µM | – | –
-4.3643 M | O=C(N/N=C/c1ccccn1)c1ccccc1 [MLS000562399-01] | 43.2 µM | – | –
-4.3643 M | Cc1cccc(Cn2nnc3c2C(=O)c2ccccc2C3=O)c1 [MLS000594471-01] | 43.2 µM | – | –
-4.5143 M | Cc1nn(C)c(C)c1CCC(=O)N1CCC(Cc2noc(-c3ccc(F)cc3)n2)C1 (stereo not drawn) [NCGC00443260-01] | 30.6 µM | – | –
-4.3643 M | Cc1ccc(-c2nn(-c3ccccc3)cc2CSC(=N)N)cc1 [MLS000572993-01] | 43.2 µM | – | –
-4.5143 M | Cc1cc(=O)n(CC(=O)Nc2cccc(C(F)(F)F)c2)c(N2CCC(C)CC2)n1 [NCGC00432189-01] | 30.6 µM | – | –
-8.3643 M | O=C(CC1C(=O)NCCN1Cc1cccc(Oc2ccccc2)c1)NCc1ccco1 (stereo not drawn) [NCGC00439848-01] | 0.00432 µM | – | –
-4.4643 M | CCCCOc1ccc(-c2nc(C3CC(=O)N(C4CCCCC4)C3)no2)cc1 (stereo not drawn) [NCGC00448051-01] | 34.3 µM | – | –
-4.3643 M | COc1ccc(CNc2ncnc3c2[nH]c2ccccc23)cc1 [MLS000768346-01] | 43.2 µM | – | –
-4.3643 M | O=C(N1CCCN(c2cc(-c3ccc(Cl)cc3)n[nH]2)CC1)C1(c2ccccc2)CC1 [NCGC00436184-01] | 43.2 µM | – | –
-4.7643 M | O=C(Nc1ccc(Oc2cccc(C(F)(F)F)c2)nc1)c1cccs1 [MLS000860613-01] | 17.2 µM | – | –
-4.6143 M | Cc1ccc(NC(=O)CSc2n[nH]c(-c3ccccn3)n2)cc1 [MLS001223214-01] | 24.3 µM | – | –
-4.3028 M | O=C(C[C@@H]1CCNC[C@@H]1Cc1cc(CC2CCCCC2)on1)NCc1ccccc1 [NCGC00400728-01] | 49.8 µM | – | –
-4.4643 M | Cc1nc(N2CCC(NC(=O)c3cc4ccccc4[nH]3)CC2)cc(C(F)(F)F)n1 [NCGC00455533-01] | 34.3 µM | – | –
-4.4643 M | N=c1ccn(Cc2cccc(Cl)c2)cc1 [MLS000080111-01] | 34.3 µM | – | –
-5.1643 M | Cc1nc(-c2ccc(Cl)cc2)sc1CCNC(=O)c1ccco1 [NCGC00131874-01] | 6.85 µM | – | –
-4.5143 M | OC[C@H]1CCN(Cc2ccc(-c3cccc(Cl)c3Cl)o2)C[C@@H]1O [NCGC00438915-01] | 30.6 µM | – | –
-4.3643 M | O=C(NC1CCN(c2cc(-c3cccs3)n[nH]2)CC1)c1cccc(OC(F)(F)F)c1 [NCGC00437198-01] | 43.2 µM | – | –
-4.6143 M | COc1ccc2cc1Nc1ccc(cc1)C[C@H](NC(=O)CCc1ccccn1)C(=O)N(C)[C@@H](C(=O)NCc1ccccc1)C2 [NCGC00410291-01] | 24.3 µM | – | –

Structure (SMILES) | Log AC50 (M) (HepG2) | CC50 at 48 h (in vitro) | AC50 ([1]; read-out: AC50) | AC50 [1]
COc1ccc(NC(=O)OC[C@H]2C[C@@H]3CCN2C[C@@H]3c2cc(C3CCCC3)nc(-c3ccncc3)n2)cc1 [NCGC00421346-01] | -4.3643 M | 43.2 µM | 4.22 µM | –
Cc1ccc([S+](=O)([O-])NC[C@H]2C[C@@H]3CC[N@]2C[C@@H]3CN2CCc3ccccc32)cc1 [NCGC00421178-01] | -4.2528 M | 55.9 µM | – | 13.7 µM
COC(=O)C1=C(C)NC(C)=C(C(=O)OC(C)(C)CN(C)CCC(c2ccccc2)c2ccccc2)C1c1cccc([N+](=O)[O-])c1.Cl (stereo not drawn) [NCGC00167492-01] | -4.6143 M | 24.3 µM | 2.99 µM | –
O=C(O)c1ccccc1.OC(CNCC1CCCO1)Cn1c2ccc(Cl)cc2c2cc(Cl)ccc21 (stereo not drawn) [MLS000525403-01] | -4.4143 M | 38.5 µM | 1.19 µM | –
Cc1cc(OCCn2cc(C(=O)c3ccco3)c3ccccc32)ccc1Cl [NCGC00101880-01] | -4.8143 M | 15.3 µM | 5.31 µM | –
CC(=O)c1cn(CCOc2ccc(F)cc2)c2ccccc12 [MLS001205469-01] | -4.3643 M | 43.2 µM | – | –
